From ChEMBL document CHEMBL4007395 (J Med Chem, 2017)

Legend:
[1] = Inhibition of HIV-2 protease using anthranilyl-HIV protease as substrate preincubated for 5 mins followed by substrate addition in presence of nonionic detergent Triton-X-100 by fluorescence assay; parameters: species or system Human immunodeficiency virus 2
[2] = Inhibition of malate dehydrogenase (unknown origin) using oxaloacetate as substrate preincubated for 5 mins followed by substrate addition in presence of nonionic detergent Triton-X-100 by UV-vis spectrophotometric method; parameters: species or system Homo sapiens
Homo sapiens [3] = species: Homo sapiens; test: Effect on total aberrant foci number in human colon cancer patient at 4 g/day for 30 days during phase IIa trial by colonoscopic analysis; assay type: functional
[4] = Plasma concentration in human at 3.6 g, po administered as capsule measured at 1 hr post dose by UV-RP-HPLC method; assay type: ADME, organism-based
[5] = Apparent permeability in human Caco2 cells; assay type: ADME, cell-based; conditions: Caco-2
[6] = Inhibition of Escherichia coli AmpC beta-lactamase using CENTA as substrate preincubated for 5 mins followed by substrate addition by UV-vis spectrophotometric method
[7] = Oral bioavailability in Sprague-Dawley rat at 500 mg/kg by LC-MS/MS analysis; assay type: ADME, organism-based; conditions: in vivo
[8] = Half-life in Tris-HCl buffer at 70 uM at pH 7.2 by UV/Vis spectrophotometric method; assay type: physicochemical
[9] = Drug uptake in human rectal mucosa assessed per gram protein at 2 g/day for 30 days; assay type: ADME; conditions: 720 h
[10] = Cmax in human at 12 g, po administered as single dose capsule after 2 hrs by UV-HPLC method; assay type: ADME, organism-based; parameters: dose 12 g, route oral; conditions: in vivo
Plasma [11] = test: Plasma concentration in human at 8 g/day, po by HPLC/TMS; assay type: ADME, organism-based; conditions: in vivo
[12] = Half-life in Sprague-Dawley rat at 500 mg/kg, po by LC-MS/MS analysis; assay type: ADME, organism-based; conditions: in vivo
Mus musculus = test: Cmax in mouse at 100 mg/kg, po after 30 mins; assay type: ADME, organism-based; parameters: dose 100 mg/kg, route oral; conditions: in vivo, 0.5 h
[13] = Half-life in Tris-HCl buffer at 70 uM at pH 7.5 by UV/Vis spectrophotometric method; assay type: physicochemical
[14] = Inhibition of HIV-2 protease using anthranilyl-HIV protease as substrate preincubated for 5 mins followed by substrate addition by fluorescence assay; parameters: species or system Human immunodeficiency virus 2
[15] = Inhibition of Escherichia coli AmpC beta-lactamase using CENTA as substrate preincubated for 5 mins followed by substrate addition in presence of nonionic detergent Triton-X-100 by UV-vis spectrophotometric method
Plasma [16] = test: Drug metabolism in human plasma assessed as curcumin sulfate formation at 3.6 g, po administered as capsule measured at 1 hr post dose by UV-HPLC-MS analysis; assay type: ADME, organism-based; conditions: in vivo
[17] = Drug uptake in human rectal mucosa assessed per gram protein at 4 g/day for 30 days; assay type: ADME; conditions: 720 h
Plasma [18] = test: Drug metabolism in human plasma assessed as curcumin glucuronide formation at 3.6 g, po administered as capsule measured at 1 hr post dose by UV-HPLC-MS analysis; assay type: ADME, organism-based; conditions: in vivo
[19] = Inhibition of malate dehydrogenase (unknown origin) using oxaloacetate as substrate preincubated for 5 mins followed by substrate addition by UV-vis spectrophotometric method; parameters: species or system Homo sapiens
[20] = molecular target: Glycogen synthase kinase-3 beta (Rattus norvegicus, UniProt P18266); test: Inhibition of recombinant rat N-terminal GST-tagged GSK3beta expressed in Escherichia coli assessed as reduction in tau phosphorylation preincubated for 30 mins followed by tau protein addition measured after 1 hr by ELISA
Chain of Glycogen synthase kinase-3 beta (P18266 whole entry): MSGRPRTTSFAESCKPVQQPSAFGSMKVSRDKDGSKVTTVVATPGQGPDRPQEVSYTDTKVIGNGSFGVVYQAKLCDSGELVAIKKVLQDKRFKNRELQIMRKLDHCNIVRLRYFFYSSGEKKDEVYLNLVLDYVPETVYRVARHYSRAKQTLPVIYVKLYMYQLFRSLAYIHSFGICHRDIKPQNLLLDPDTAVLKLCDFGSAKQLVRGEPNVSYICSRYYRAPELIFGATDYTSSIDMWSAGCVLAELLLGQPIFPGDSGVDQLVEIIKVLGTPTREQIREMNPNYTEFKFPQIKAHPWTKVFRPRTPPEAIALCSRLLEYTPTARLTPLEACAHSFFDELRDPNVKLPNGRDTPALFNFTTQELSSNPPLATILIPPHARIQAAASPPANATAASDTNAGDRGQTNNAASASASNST

Homo sapiens [21] = species: Homo sapiens; test: Effect on total aberrant foci number in human colon cancer patient at 2 g/day for 30 days during phase IIa study by colonoscopic analysis; assay type: functional

IC50 [1]: > 100 µM | IC50 [2]: > 30 µM | concentration at 1 h [4]: 11.1 ng/mL | Papp [5]: 3.18 ×10⁻⁶ cm/s | IC50 [6]: 12 µM | bioavailability [7]: < 1% | half-life at 70 µM [8]: < 10 min | Drug uptake [9]: 8.2 µg | Cmax [10]: 57.6 ng/mL | Cp (Plasma [11]): 22 to 41 ng/mL | half-life [12]: < 5 min | Cmax (Mus musculus): 60 nM | half-life at 70 µM [13]: 20 min | IC50 [14]: 9 µM | IC50 [15]: > 30 µM | Drug metabolism (Plasma [16]): 8.9 nmol/L | Drug uptake [17]: 3.8 µg | Drug metabolism (Plasma [18]): 15.8 nmol/L | IC50 [19]: 9 µM | IC50 [20]: 0.066 µM
SMILES: COc1cc(/C=C/C(=O)CC(=O)/C=C/c2ccc(O)c(OC)c2)ccc1O [CURCUMIN]
Activity (Homo sapiens [3]): 6 | Activity (Homo sapiens [21]): 0
